Reference: PMC9424906 (Frontiers in Pharmacology, 2022)
In brackets after ≈: the same amount, converted by molar mass.

Key:
[1] = system: OATP1B3; conditions: cited from earlier work
[2] = molecular target: T1, CNT3 (Homo sapiens, UniProt Q9HAS3); test: Nucleoside transporter uptake, CNT3-transfected MDCK cells; type: in vitro ADME
T1 construct: expressed in transfected cells; host or cells: MDCK-II
Source text: Each condition was run in triplicate.

[3] = Liver microsomal stability, SD rat; type: in vitro ADME; conditions: Sprague-Dawley, liver microsomes, pH 7.4, 0.5 mg/mL
Description: Samples were analyzed using UPLC-MS/MS.

[4] = system: OAT3; conditions: cited from earlier work
[5] = Pharmacokinetics in Beagle dogs; type: in vivo, dog; conditions: for half-life: plasma
Description: (§1) Adult male C57BL/6 mice and Sprague Dawley rats were purchased from Charles River Laboratory (Wilmington, MA). PK studies for mice and rats were conducted at NIH animal facility (Bethesda, MD). In-life dog and monkey PK studies were conducted at Absorption System (San Diego, CA) and Frontage Labs (Concord, OH), respectively. Dogs and monkeys were fasted overnight prior to dose administrations. All experimental procedures were reviewed and approved by the Animal Care and Use Committee (ACUC) of the NIH Division of Veterinary Resources (DVR) or CRO labs for in-life studies.
The dosing volume was 1.0 mL/kg for both groups. Plasma (both IV and PO groups) and urine (IV group) samples were collected over a period of 48 h.
(§2) Blood samples from all groups and species were collected in K2EDTA tubes and stored on wet ice pending processing. Blood was centrifuged at 2200 g at 4°C for 10 min to isolate plasma. All samples were stored at -80°C until analysis.
(§3) Phoenix WinNonlin, version 8.1 (Certara, St. Louis, MO), was used to perform PK analysis with the non-compartmental approach (Models 200 and 201 for PO and IV datasets). The area under the plasma concentration vs. time curve (AUC) was calculated using the linear trapezoidal method. The terminal rate constant (λ) was obtained from the slope of at least three data points of the apparent terminal phase of the log-linear plasma concentration vs. time curve when available. AUC0–∞ was estimated as the sum of the AUC0–t (where t is the time of the last measurable concentration) and Ct/λ. The apparent terminal half-life (t½) was calculated as 0.693/λ. Bioavailability (F) was calculated using ratios of dose normalized AUC (AUC/Dose) obtained from PO and IV PK studies.

[6] = in vitro; type: in vitro ADME; conditions: PAMPA, pH 7.4
Description: Stirring double-sink PAMPA (patented by Pion Inc.) was employed to determine permeability. Assay was performed as described previously ([Sun et al., 2017]). The PAMPA lipid membrane, which consisted of an artificial membrane of a proprietary lipid mixture and dodecane (Pion Inc.), was optimized to predict cell membrane permeability. This artificial membrane was immobilized on a plastic matrix of a 96-well “donor” filter plate placed below a 96-well “acceptor” plate. Both “donor” and “acceptor” wells were buffered to pH 7.4. […] Permeability calculations were performed using Pion Inc. software and were expressed in the unit of 10^–6 cm/s.

[7] = system: MATE2-K; conditions: cited from earlier work
[8] = set-up: species or system human
Description: Allometric methods were used to predict human plasma clearance and volume of distribution ([Mahmood and Balian, 1996]; [Sharma and McNeill, 2009]). Human PK prediction was carried out with GastroPlus, version 9.6 (SimulationsPlus, Lancaster, CA)
To predict human exposures after oral administration, human PK parameters were estimated using allometric scaling and human PK profile was simulated using GastroPlus. The allometric scaling was performed as previously described ([Mahmood and Balian, 1996]).

[9] = physchem; conditions: for solubility thermodynamic: thermodynamic from solid
[10] = in vitro; type: in vitro ADME, human; conditions: Sprague-Dawley (rat), CD-1 (mouse), Beagle (dog), monkey
Description: Plasma protein binding experiments were carried out in mixed-gender human plasma, male Sprague-Dawley rat plasma, male CD-1 plasma, male Beagle dog plasma, and male Cynomolgus monkey plasma (BioIVT) using a Pierce Rapid Equilibration Dialysis (RED) device. […] Blank phosphate-buffered saline (PBS) (500 μL) was added to each corresponding receiver chamber. After 4 h of incubation (with shaking at 37°C), both sides were aliquoted, and matrix was normalized. Samples were centrifuged at 1000 g for 10 min after adding two volumes of ACN with IS. Supernatants were diluted 1:1 with water and analyzed with LC-MS/MS.
Plasma Protein binding was calculated as follows:
% Bound = [(PARR in Donor–PARR in Receiver)/(PARR in Donor)] × 100.
PARR = peak area response ratio to internal standard, including applicable dilution factors.

[11] = system: MDR1; test: in vitro; conditions: dog, MDCK-MDR1, 5 µM; for Papp A→B at 2 h, 5 µM: MDCK-MDR1, pH 7.4, Papp A to B; for Papp B→A at 2 h, 5 µM: MDCK-MDR1, pH 7.4, Papp B to A
[12] = Pharmacokinetics in C57BL/6 mice; type: in vivo, mouse; conditions: male
Description: as §1
Male C57BL6 mice (n = 3 per time point, 24–40 g) were dosed at 5 mg/kg IV or 10 mg/kg oral gavage. The dosing volume was 3 mL/kg for IV and 10 ml/kg for PO. All dosing solutions were freshly prepared on the day of administration. Blood samples were collected over 24 h.
as §2, §3

[13] = male, beagle, dog, in vivo, iv, 2 mg/kg
[14] = male, beagle, dog, in vivo, po, 5 mg/kg
[15] = C57BL/6, mouse, in vivo, iv, 5 mg/kg
[16] = C57BL/6, mouse, in vivo, po, 10 mg/kg

T1 sequence (Q9HAS3 whole entry): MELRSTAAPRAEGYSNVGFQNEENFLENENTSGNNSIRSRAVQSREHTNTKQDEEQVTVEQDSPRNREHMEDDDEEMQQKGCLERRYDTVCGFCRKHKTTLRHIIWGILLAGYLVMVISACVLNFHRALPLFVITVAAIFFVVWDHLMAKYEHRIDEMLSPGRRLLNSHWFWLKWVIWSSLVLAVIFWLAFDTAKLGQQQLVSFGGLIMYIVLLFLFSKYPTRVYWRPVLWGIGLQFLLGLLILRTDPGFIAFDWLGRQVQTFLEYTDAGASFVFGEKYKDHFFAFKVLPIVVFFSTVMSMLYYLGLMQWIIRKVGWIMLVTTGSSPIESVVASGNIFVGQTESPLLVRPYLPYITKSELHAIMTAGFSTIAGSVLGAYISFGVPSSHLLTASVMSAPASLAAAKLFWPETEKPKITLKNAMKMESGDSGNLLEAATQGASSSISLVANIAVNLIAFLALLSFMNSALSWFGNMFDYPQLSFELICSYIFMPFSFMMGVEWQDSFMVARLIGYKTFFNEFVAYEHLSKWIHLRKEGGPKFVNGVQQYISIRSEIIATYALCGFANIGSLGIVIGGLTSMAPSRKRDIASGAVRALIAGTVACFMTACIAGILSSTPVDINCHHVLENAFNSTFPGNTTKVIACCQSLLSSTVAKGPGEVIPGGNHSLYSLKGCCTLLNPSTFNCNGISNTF

SMILES: N#C[C@@]1(c2ccc3c(N)ncnn23)O[C@H](CO)[C@@H](O)[C@H]1O [GS-441524]
- Substrate of OATP1B3 [1]: not a substrate
- Substrate of CNT3 [2]: substrate
- Inhibition of uptake by reference inhibitor ([2]; CNT3-transfected cells, reference inhibitor adenosine, 30 µM GS-441524): 98.9%
- half-life at 1 µM [3]: 1.02 ± 0.15 h
- Substrate of OAT3 [4]: not a substrate
- t1/2 ([5]; Dog, PO 5 mg/kg, 5 mg/kg): 4.1 ± 1.1 h
- Vd ([5]; male, Beagle, dog, in vivo, iv, 2 mg/kg, Vdss): 0.9 L/kg
- half-life ([5]; male, Beagle, dog, iv, 2 mg/kg, IV 2 mg/kg): ~4 h
- half-life ([5]; male, Beagle, dog, po, 5 mg/kg, PO 5 mg/kg): ~4 h
- Mean urinary excretion of unchanged parent drug [5, 13]: ~64%
- clearance [5, 13]: 0.246 ± 0.042 L/h/kg
- Cmax [5, 14]: 6.01 µg/mL
- Tmax [5, 14]: 0.28 ± 0.19 h
- bioavailability [5, 14]: 85 ± 17%
- AUC(0-inf) ([5]; male, beagle, in vivo, Dog, PO 5 mg/kg): 19 µg·h/mL
- Papp at 30 min [6]: < 10 nm/s
- Substrate of MATE2-K [7]: not a substrate
- Calculated human CLp as share of human hepatic blood flow ([8]; allometric scaling): approximately 10%
- Predicted human CLp ([8]; allometric scaling from mouse, rat, monkey, dog): 0.162 L/h/kg
- Predicted human Vdss ([8]; human): 0.6 L/kg
- solubility thermodynamic ([9]; pH 1.6, simulated gastric fluid): > 1 mg/mL
- solubility thermodynamic ([9]; pH 2, aqueous buffer): > 1 mg/mL
- solubility ([9]; pH 5): 0.035 to 0.052 mg/mL (≈ 120 to 179 µM)
- solubility thermodynamic ([9]; pH 5, aqueous buffer): 0.052 mg/mL (≈ 179 µM)
- solubility thermodynamic ([9]; pH 5.8, fessif): 0.052 mg/mL (≈ 179 µM)
- solubility thermodynamic ([9]; pH 6.5, fassif): 0.035 mg/mL (≈ 120 µM)
- solubility thermodynamic ([9]; pH 7.4, aqueous buffer): 0.047 mg/mL (≈ 161 µM)
- fraction unbound at 4 h, 10 µM ([10]; both (human, mixed-gender), male (animals), human): 0.62 to 0.78
- fraction unbound at 4 h, 10 µM ([10]; male, plasma): 0.62 to 0.64
- Papp A→B at 2 h, 5 µM ([11]; 1 µM Valspodar): 4.84 nm/s
- Papp A→B at 2 h, 5 µM ([11]; no inhibitor): 1.58 nm/s
- Papp B→A at 2 h, 5 µM ([11]; 1 µM Valspodar): 4.68 nm/s
- Papp B→A at 2 h, 5 µM ([11]; no inhibitor): 5.21 nm/s
- Vd [12, 15]: 2.4 L/kg
- clearance [12, 15]: 1.56 L/h/kg
- AUC(0-inf) [12, 16]: 2.54 µg·h/mL
- Cmax [12, 16]: 0.582 µg/mL
- Tmax [12, 16]: 1.5 h
- bioavailability [12, 16]: 39%
- half-life ([12]; C57BL/6, plasma, Mouse, PO 10 mg/kg): 3.9 h
